# Legend:
# STZ diabetic rats = test: Anti-diabetic efficacy in streptozotocin (STZ) diabetic rats (FBG, IPGTT, IPITT, fluid balance, insulin/glucagon content); type: in vivo, rat
# Method: Male Sprague-Dawley (SD) rats weighing 250-275 gr were fed ad libitum (Harlan Teklad 2018), had free access to water, and were kept on a 12:12 h light:dark cycle. Experimental type 1 diabetes (T1D) was induced in overnight fasted rats by a single intra-peritoneal injection of streptozotocin (STZ, 60 mg/kg body weight, Sigma Aldrich) freshly prepared in 0.1 M of cold citrate buffer (pH 4.5), followed by oral 10% glucose solution for the next 24 hours to overcome STZ-induced acute hypoglycemia. STZ diabetic rats (defined as having a fasting blood glucose (FBG) level higher than 300 mg/dl) were selected for further studies.
# SHAM (control) rats were injected with 0.1 M of cold citrate buffer (pH 4.5). STZ diabetic or SHAM rats were dosed twice daily by gavage (orally) with 1% CMC (Sigma Aldrich C5678), or with HOOC—C(CH3)2—(CH2)12—C(CH3)2—COOH (2,2,15,15-tetramethylhexadecane-1,16-dioic acid) also termed herein “MEDICA16αα”, “Medica16αα” or M16αα(15 mg/kg body weight) suspended in 1% CMC, or injected intraperitoneal (i.p.) with Neutral Protamine Hagedorn (NPH) insulin (3 u/kg body weight b.i.d), as indicated.
# (§1) Administering a combination of Medica16αα and insulin was performed by treating STZ diabetic rats (FBG >300 mg/dl) with oral MEDICA16αα(15 mg/kg b.i.d) for five consecutive days, then MEDICA16αα-responsive rats were further treated with MEDICA16αα(15 mg/kg b.i.d) for 10 additional consecutive days (“STZ/MEDICA Res”), and MEDICA16αα non-responsive rats (FBG >250 mg/dl) were further treated for 10 additional consecutive days with either insulin Neutral Protamine Hagedorn (NPH) (3 u/kg b.i.d subcutaneously) (“STZ/NPH”), or with insulin NPH (3 u/kg b.i.d subcutaneously in combination with oral MEDICA16αα(15 mg/kg b.i.d) (“STZ/MEDICA NPH”).
# Tail vein FBG was verified daily by a glucometer (Glucometer®, Accu-Check® Performa, Roche Diagnostics). Urine secretion, food and water consumption were measured in standard metabolic cages (Tecniplast™ Metabolic Cage Systems for Rodents) for 48 hour periods. Samples were collected and recorded every 12 hour.
# Overnight fasted rats were injected i.p (1 gr glucose/kg bw) with 20% dextrose solution (Teva Medical). Tail vein blood was sampled on 0, 30, 60, 90 and 120 minutes following glucose injection.
# Fasted rats (5 hours fast) were injected i.p (2 u/kg bw) with HumulinR insulin (Eli Lilly). Tail blood glucose levels were measured by glucometer at 0, 15, 30, 60, and 120 min following insulin injection.
# (§2) Pancreas and plasma insulin and glucagon content were determined by insulin (Millipore, Cat #RI-13K) and glucagon (Millipore, Cat # GL-32K) radioimmunoassay (RIA) kits. cAMP levels were measured by cAMP kit (Arbor Assays, DetectX Cat # K019-H1).
# hepatic gluconeogenesis = test: Suppression of hepatic gluconeogenesis in STZ diabetic rats (RT-PCR, Western blot, cAMP kit); type: in vivo, rat
# Method: as §1
# Sampled frozen tissue was homogenized (Polytron) in lysis buffer (50 mM Tris HCl, pH 8.0, 1% Triton X-100, 1 mM EGTA, 1 mM EDTA, 150 mM NaCl, 5 mM NaPPi, 50 mM NaF, 1 mM PMSF, 1 mM Na Vanadate, 40 nM bpVfan and protease inhibitor cocktail (Sigma)), and centrifuged for 15 min at 12,500 rpm.
# (§3) Protein lysates were prepared in sodium dodecyl sulfate (SDS) sample buffer (62 mM Tris (pH 6.8), 2.3% SDS, […] mercaptoethanol, 10% glycerol), and were subjected to SDS-PAGE, electro-transferred onto cellulose nitrate membranes (Schleicher & Schuell) and probed with the indicated first antibody, followed by HRP-labeled second antibody. Protein concentration was determined by BCA (Thermo Scientific). Bands were detected by ECL, and the intensity of individual bands was determined by densitometry using ImageJ 1.48 v software.
# Sampled frozen tissue was homogenized (Polytron) in lysis buffer (50 mM Hepes (pH 7.4), 150 mM NaCl, 10% Glycerol, 1.5 mM MgCl2, 1 mM EGTA, 1% Triton, 50 mM β-glycerolphosphate, 25 mM NaF, 1 mM Na-vanadate, 40 nM bpVphen, protease inhibitor mix (Sigma) and 17.5 mg/ml octyl beta-D-glucopyranoside (Sigma)). Lysates were kept on ice for 30 min and centrifuged at 12000 rpm for 15 min. Lysates ([…]) were incubated for 4 h with protein A/G beads (Santa Cruz Biotechnology) pre-loaded with the indicated antibody. The immune-precipitate was rinsed 3 times with washing buffer (20 mM Hepes (pH 7.4), 150 mM NaCl, 0.1% Tx-100, 10% glycerol), re-suspended in SDS sample buffer, boiled for 8 min, and analyzed by SDS-PAGE.
# Total RNA was prepared using the TRI reagent (Sigma Aldrich). First-strand cDNA used as template was synthesized by reverse transcription using oligo(dT) as primer and the Reverse-iTMAX First Strand Kit (ABgene, Epson). Glucose-6-phosphatase (G6Pase) and phosphoenolpyruvate carboxykinase (PEPCK) transcripts normalized by tubulin were quantified by real-time PCR (Rotor Gene RG-3000A) using SYBER green MasterMix (Absolute Syber Green ROX Mix, ABgene) and the following primers: […]
# as §2
# Soleus GLUT4 = test: Activation of Soleus GLUT4 in STZ diabetic rats; type: in vivo, rat
# Method: as §1
# Muscle tissue was fixed with 4% buffered formaldehyde for 4 hours. Paraffin sections (5 μm) were rehydrated and antigen retrieved in citrate buffer using a Biocare pressure cooker, followed by 5 minutes blocking in peroxidase and 10 minutes of protein block (Cas-Block). The sample was incubated with anti-GLUT4 antibody (AbCam ab65267), followed by polyclonal anti-mouse IgG. DAB substrate buffer was then added to achieve coloration. The specimens were subsequently dehydrated with ethanol, cleared with xylene and then mounted on glass cover slips. Digital images were obtained using Nikon Eclipse TE-2000E microscope equipped with Olympus DP70 camera. Image analysis was carried out using ImageJ software. […]
# as §3
# NOD mice = test: Islet insulitis scoring in NOD mice; type: in vivo, mouse; conditions: 14-week old pre-diabetic NOD mice
# From the text: Head of pancreas of NOD mice was sampled, fixed in 4% buffered formalin, embedded in paraffin, and […] sections were stained with hematoxylin/eosin. Insulitis scores 0 to 4 were verified by the percentage of intra-islet mononuclear granulation (“0”, no intra-islet mononuclear cell infiltration; “1”, <25% of islet being infiltrated with mononuclear cell granulation; “2”, 25%-50%; “3”, 50-75%; “4”, >75%), in 30 to 40 islets per pancreas.
compound,measurement,setting,value
"CC(C)(CCCCCCCCCCCCC(C)(C)C(=O)O)C(=O)O [MEDICA16αα, 2,2,15,15-tetramethylhexadecane-1,16-dioic acid]",pancreatic and/or plasma insulin and glucagon content,"STZ diabetic rats; STZ diabetic rats, stand-alone treatment","not accounted for by significant increase in pancreatic and/or plasma insulin, neither by significant decrease in glucagon content"
same,fluid consumption and excretion,"STZ diabetic rats; STZ/MEDICA Res rats, stand-alone",partial decrease
same,blood glucose level in i.p glucose tolerance test (IPGTT),"STZ diabetic rats; STZ/MEDICA Res rats, stand-alone 15 mg/kg b.i.d",amelioration in blood glucose level
same,STZ diabetic rats in which FBG was normalized (FBG<250 mg/dL),"STZ diabetic rats; oral 15 mg/kg b.i.d, 10 consecutive days, stand-alone (no insulin), all-or-none response",about 40%
same,treated STZ diabetic rats that remained non responsive (FBG >250 mg/dl),"STZ diabetic rats; oral 15 mg/kg b.i.d, stand-alone",60%
same,hepatic cAMP levels,hepatic gluconeogenesis,suppressing hepatic cAMP levels
same,hepatic phospho-ACC(Ser79) (AMPK activation),hepatic gluconeogenesis,phosphorylation of its downstream ACC(Ser79) substrate
same,soleus AKT (phospho-Akt(Ser473)),Soleus GLUT4,activated
same,soleus AMPK (phospho-ACC(Ser79)),Soleus GLUT4,activated
same,soleus phospho-AS160(Thr642),Soleus GLUT4,increase in phosphorylated AS160(Thr642)
same,islet insulitis rankings versus non-treated,NOD mice,essentially similar
